Data as given in patent US12662479B2 (Foghorn Therapeutics Inc., priority 2020, dated 2026).

Legend:
HiBit-BRM fusion protein = molecular target: T1, HiBit-BRM fusion protein (Homo sapiens, UniProt P51531); assay: HiBiT-BRM cell-based degradation assay (Nano-Glo HiBiT Lytic Detection, 24 h); conditions: HeLa cells expressing HiBiT-BRM; for DC50: read-out: BRM HiBit Degradation IC50; for BRM HiBit Degradation Maximum measured: top dose 30 μM
T1 construct: expressed in transfected cells
Procedure, shortened: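 HeLa cells stably expressing HiBiT-BRM were treated for 24 h with compounds (10-point 3-fold dilutions, 30 μM final top dose, in duplicate). HiBiT was detected by lytic LgBiT complementation luminescence. % degradation was normalized to DMSO (high control) and 2 μM of a reference BRM/BRG1 degrader (low control).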

[1] = molecular target: T2, HiBit-BRG1 fusion protein (Homo sapiens, UniProt P51532); assay: HiBiT-BRG1 cell-based degradation assay (Nano-Glo HiBiT Lytic Detection, 24 h); conditions: HeLa cells expressing HiBit-BRG1 and LgBit; for DC50: read-out: BRG1 HiBit Degradation IC50; for Dmax: HeLa, top dose 30 μM, read-out: BRG1 HiBit Degradation Maximum measured
T2 construct: expressed in transfected cells
T2 sequence (P51532 whole entry, the tested form may be a part): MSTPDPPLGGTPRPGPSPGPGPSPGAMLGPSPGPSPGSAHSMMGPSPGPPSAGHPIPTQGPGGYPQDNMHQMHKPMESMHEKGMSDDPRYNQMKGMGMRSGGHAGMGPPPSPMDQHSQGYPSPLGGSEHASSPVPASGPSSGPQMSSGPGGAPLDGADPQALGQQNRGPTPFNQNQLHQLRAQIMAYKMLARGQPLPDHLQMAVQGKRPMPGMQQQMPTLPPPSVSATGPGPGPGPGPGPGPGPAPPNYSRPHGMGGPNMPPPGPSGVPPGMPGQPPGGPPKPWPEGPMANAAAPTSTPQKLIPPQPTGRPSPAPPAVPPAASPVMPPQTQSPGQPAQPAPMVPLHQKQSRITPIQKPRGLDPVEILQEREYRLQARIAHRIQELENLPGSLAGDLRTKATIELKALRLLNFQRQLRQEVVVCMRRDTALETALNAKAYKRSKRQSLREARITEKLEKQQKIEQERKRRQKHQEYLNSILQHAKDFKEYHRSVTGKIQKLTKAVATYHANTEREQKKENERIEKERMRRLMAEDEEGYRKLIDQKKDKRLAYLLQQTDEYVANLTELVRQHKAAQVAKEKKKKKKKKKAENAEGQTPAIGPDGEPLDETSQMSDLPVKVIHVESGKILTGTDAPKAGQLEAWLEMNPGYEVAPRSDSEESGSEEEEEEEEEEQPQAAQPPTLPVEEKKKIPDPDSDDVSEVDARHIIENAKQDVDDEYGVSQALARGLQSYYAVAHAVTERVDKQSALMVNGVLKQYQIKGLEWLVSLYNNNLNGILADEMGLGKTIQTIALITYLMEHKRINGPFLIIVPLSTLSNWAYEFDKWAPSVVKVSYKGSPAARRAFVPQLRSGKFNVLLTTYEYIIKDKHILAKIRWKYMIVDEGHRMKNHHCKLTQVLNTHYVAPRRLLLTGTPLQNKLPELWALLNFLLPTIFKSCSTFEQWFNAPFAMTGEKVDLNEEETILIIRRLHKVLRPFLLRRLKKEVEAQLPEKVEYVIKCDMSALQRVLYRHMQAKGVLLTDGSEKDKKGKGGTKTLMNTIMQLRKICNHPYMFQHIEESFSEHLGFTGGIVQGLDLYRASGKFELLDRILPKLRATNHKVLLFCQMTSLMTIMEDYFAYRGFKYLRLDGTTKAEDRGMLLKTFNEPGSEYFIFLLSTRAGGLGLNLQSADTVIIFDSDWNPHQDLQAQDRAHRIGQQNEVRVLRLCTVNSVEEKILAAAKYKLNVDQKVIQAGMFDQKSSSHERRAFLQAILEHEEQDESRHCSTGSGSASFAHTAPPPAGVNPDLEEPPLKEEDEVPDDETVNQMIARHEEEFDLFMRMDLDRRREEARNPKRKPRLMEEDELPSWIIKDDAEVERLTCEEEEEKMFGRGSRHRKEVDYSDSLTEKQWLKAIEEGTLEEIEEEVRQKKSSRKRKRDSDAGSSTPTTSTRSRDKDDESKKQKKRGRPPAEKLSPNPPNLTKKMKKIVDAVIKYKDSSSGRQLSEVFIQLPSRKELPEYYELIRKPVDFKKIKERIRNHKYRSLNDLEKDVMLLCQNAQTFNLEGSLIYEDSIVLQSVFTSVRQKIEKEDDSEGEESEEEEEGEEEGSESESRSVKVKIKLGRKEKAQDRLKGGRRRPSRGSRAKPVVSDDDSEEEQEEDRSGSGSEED
Procedure, shortened: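 Stable HeLa line expressing HiBiT-BRG1 and LgBiT, seeded at 5000 cells/well; luminescence read after lytic Nano-Glo HiBiT reagent and 10 min shaking at RT. % degradation normalised between DMSO (high control) and 2 μM reference BRM/BRG1 degrader (low control).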

T1 sequence (P51531 whole entry, the tested form may be a part): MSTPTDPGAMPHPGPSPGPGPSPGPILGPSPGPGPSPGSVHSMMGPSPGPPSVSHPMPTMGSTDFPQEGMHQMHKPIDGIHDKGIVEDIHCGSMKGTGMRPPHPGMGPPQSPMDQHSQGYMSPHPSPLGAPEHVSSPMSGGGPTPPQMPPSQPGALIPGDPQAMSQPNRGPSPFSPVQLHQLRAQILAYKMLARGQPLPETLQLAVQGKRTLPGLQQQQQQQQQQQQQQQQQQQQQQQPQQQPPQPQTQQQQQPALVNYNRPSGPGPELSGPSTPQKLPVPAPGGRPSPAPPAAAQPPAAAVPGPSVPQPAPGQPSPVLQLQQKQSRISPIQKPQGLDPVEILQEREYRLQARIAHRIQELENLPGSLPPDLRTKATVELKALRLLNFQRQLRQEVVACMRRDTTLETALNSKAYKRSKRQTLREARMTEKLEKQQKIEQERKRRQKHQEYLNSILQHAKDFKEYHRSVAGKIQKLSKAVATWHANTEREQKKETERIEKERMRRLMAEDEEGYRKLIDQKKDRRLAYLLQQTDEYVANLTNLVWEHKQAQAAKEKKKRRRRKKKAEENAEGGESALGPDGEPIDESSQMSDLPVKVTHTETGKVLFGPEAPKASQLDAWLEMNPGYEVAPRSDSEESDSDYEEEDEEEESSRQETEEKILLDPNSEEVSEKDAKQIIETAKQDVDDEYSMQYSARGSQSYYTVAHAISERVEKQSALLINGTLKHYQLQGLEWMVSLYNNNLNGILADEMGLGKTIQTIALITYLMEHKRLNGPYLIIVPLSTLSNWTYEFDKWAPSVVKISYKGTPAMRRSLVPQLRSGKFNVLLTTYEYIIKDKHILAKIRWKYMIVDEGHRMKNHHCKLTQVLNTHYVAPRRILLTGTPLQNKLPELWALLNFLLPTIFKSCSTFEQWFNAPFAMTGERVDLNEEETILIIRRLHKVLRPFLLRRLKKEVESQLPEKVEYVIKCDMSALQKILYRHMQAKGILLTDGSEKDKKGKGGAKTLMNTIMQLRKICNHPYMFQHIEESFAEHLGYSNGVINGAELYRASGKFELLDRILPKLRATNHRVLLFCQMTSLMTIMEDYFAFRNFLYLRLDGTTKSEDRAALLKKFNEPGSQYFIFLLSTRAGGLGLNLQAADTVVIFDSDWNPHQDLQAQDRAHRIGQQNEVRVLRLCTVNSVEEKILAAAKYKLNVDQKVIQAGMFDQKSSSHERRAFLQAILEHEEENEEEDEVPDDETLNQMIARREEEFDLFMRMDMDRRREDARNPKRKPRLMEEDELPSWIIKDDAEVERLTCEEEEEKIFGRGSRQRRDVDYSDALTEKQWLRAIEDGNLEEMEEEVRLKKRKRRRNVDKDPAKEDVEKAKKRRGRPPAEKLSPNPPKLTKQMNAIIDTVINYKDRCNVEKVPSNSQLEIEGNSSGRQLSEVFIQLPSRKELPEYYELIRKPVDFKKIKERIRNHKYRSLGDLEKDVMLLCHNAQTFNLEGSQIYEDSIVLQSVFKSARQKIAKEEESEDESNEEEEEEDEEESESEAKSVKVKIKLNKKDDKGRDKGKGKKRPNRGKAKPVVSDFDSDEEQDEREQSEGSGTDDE

For `Cc1ncsc1-c1ccc(CNC(=O)[C@@H]2C[C@@H](O)CN2C(=O)[C@@H](NC(=O)CCCCCNC(=O)CCCOC[C@H](NC(=O)c2ccn(S(C)(=O)=O)c2)C(=O)Nc2nc(-c3ccccc3)cs2)C(C)(C)C)cc1` [Compound 226, (2S,4R)-4-hydroxy-1-[(2S)-2-(6-[4-[(2S)-2-[(1-methanesulfonylpyrrol-3-yl)formamido]-2-[(4-phenyl-1,3-thiazol-2-yl)carbamoyl]ethoxy]butanamido]hexanamido)-3,3-dimethylbutanoyl]-N-[[4-(4-methyl-1,3-thiazol-5-yl)phenyl]methyl]pyrrolidine-2-carboxamide], the DC50 (HiBit-BRM fusion protein) was > 10 µM, the “BRM HiBit Degradation Maximum measured” value (HiBit-BRM fusion protein) was “C (‘C’ = Maximum degradation <50%)” and the DC50 [1] was > 10 µM. The Dmax [1] was < 50%.

In the case of `CS(=O)(=O)n1ccc(C(=O)NCC(=O)Nc2nc(C3CCCN(C(=O)CCCCOc4cccc5c4C(=O)N(C4CCC(=O)NC4=O)C5=O)C3)cs2)c1` (centres unmarked) [Compound 147, N-{4-[1-(5-{[2-(2,6-dioxopiperidin-3-yl)-1,3-dioxo-2,3-dihydro-1H-isoindol-4-yl]oxy}pentanoyl)piperidin-3-yl]-1,3-thiazol-2-yl}-2-[(1-methanesulfonyl-1H-pyrrol-3-yl)formamido]acetamide], the DC50 (HiBit-BRM fusion protein) is reported as > 10 µM, the “BRM HiBit Degradation Maximum measured” value (HiBit-BRM fusion protein) is reported as “C (‘C’ = Maximum degradation <50%)” and the DC50 [1] is reported as > 10 µM. For the same compound, the Dmax [1] was < 50%.

For `CS(=O)(=O)n1ccc(C(=O)NCC(=O)Nc2nc(-c3cccc(-c4ccnc(N5CCN(C(=O)CCCCCCCCCCNc6ccc7c(c6)C(=O)N(C6CCC(=O)NC6=O)C7=O)CC5)c4)c3)cs2)c1` (centres unmarked) [Compound 35, N-[2-[[4-[3-[2-[4-[11-[[2-(2,6-dioxo-3-piperidyl)-1,3-dioxo-isoindolin-5-yl]amino]undecanoyl]piperazin-1-yl]-4-pyridyl]phenyl]thiazol-2-yl]amino]-2-oxo-ethyl]-1-methylsulfonyl-pyrrole-3-carboxamide], the DC50 (HiBit-BRM fusion protein) was 0.1 to 1 µM, the “BRM HiBit Degradation Maximum measured” value (HiBit-BRM fusion protein) was “A (‘A’ = Maximum degradation >75%)” and the DC50 [1] was < 0.1 µM. For the same compound, the Dmax [1] was > 75%.

With `CS(=O)(=O)n1ccc(C(=O)N[C@@H](CCCCNC(=O)CCOCCOCCOc2ccc3c(c2)C(=O)N(C2CCC(=O)NC2=O)C3=O)C(=O)Nc2nc(-c3ccccc3)cs2)c1` (stereo partly drawn) [Compound 291, (2S)-6-[3-[2-(2-[[2-(2,6-dioxopiperidin-3-yl)-1,3-dioxoisoindol-5-yl]oxy]ethoxy)ethoxy]propanamido]-2-[(1-methanesulfonylpyrrol-3-yl)formamido]-N-(4-phenyl-1,3-thiazol-2-yl)hexanamide] the DC50 (HiBit-BRM fusion protein) was > 10 µM, the “BRM HiBit Degradation Maximum measured” value (HiBit-BRM fusion protein) was “C (‘C’ = Maximum degradation <50%)” and the DC50 [1] was > 10 µM. The Dmax [1] was < 50%.

In the case of `CS(=O)(=O)n1ccc(C(=O)NCC(=O)Nc2nc(-c3cccc(-c4ccn(CC(=O)N5CCC(C6CCN(C(=O)COc7cccc8c7C(=O)N(C7CCC(=O)NC7=O)C8=O)CC6)CC5)n4)c3)cs2)c1` (centres unmarked) [Compound 4, N-[2-[[4-[3-[1-[2-[4-[1-[2-[2-(2,6-dioxo-3-piperidyl)-1,3-dioxoisoindolin-4-yl]oxyacetyl]-4-piperidyl]-1-piperidyl]-2-oxo-ethyl]pyrazol-3-yl]phenyl]thiazol-2-yl]amino]-2-oxo-ethyl]-1-methylsulfonyl-pyrrole-3-carboxamide], the DC50 (HiBit-BRM fusion protein) is reported as > 10 µM, the “BRM HiBit Degradation Maximum measured” value (HiBit-BRM fusion protein) is reported as “C (‘C’ = Maximum degradation <50%)” and the DC50 [1] is reported as > 10 µM. For the same compound, the Dmax [1] was < 50%.

`Cc1ncsc1-c1ccc(CNC(=O)[C@@H]2C[C@@H](O)CN2C(=O)[C@@H](NC(=O)CCCCC(=O)NCCCC[C@H](NC(=O)c2ccn(S(C)(=O)=O)c2)C(=O)Nc2nc(-c3ccccc3)cs2)C(C)(C)C)cc1` [Compound 264, N-[(2S)-1-[(2S,4R)-4-hydroxy-2-([[4-(4-methyl-1,3-thiazol-5-yl)phenyl]methyl]carbamoyl)pyrrolidin-1-yl]-3,3-dimethyl-1-oxobutan-2-yl]-N-[(5S)-5-[(1-methanesulfonylpyrrol-3-yl)formamido]-5-[(4-phenyl-1,3-thiazol-2-yl)carbamoyl]pentyl]hexanediamide] was tested, and the DC50 (HiBit-BRM fusion protein) was > 10 µM, the “BRM HiBit Degradation Maximum measured” value (HiBit-BRM fusion protein) was “C (‘C’ = Maximum degradation <50%)” and the DC50 [1] was > 10 µM. The Dmax [1] was < 50%.

With `CS(=O)(=O)n1ccc(C(=O)NCC(=O)Nc2nc(-c3cccc(-c4ccnc(C5(C(=O)N6CC(COc7ccc8c(c7)C(=O)N(C7CCC(=O)NC7=O)C8=O)C6)CC5)c4)c3)cs2)c1` (centres unmarked) [Compound 107, N-(2-((4-(3-(2-(1-(3-(((2-(2,6-dioxopiperidin-3-yl)-1,3-dioxoisoindolin-5-yl)oxy)methyl)azetidine-1-carbonyl)cyclopropyl)pyridin-4-yl)phenyl)thiazol-2-yl)amino)-2-oxoethyl)-1-(methylsulfonyl)-1H-pyrrole-3-carboxamide] the DC50 (HiBit-BRM fusion protein) was > 10 µM, the “BRM HiBit Degradation Maximum measured” value (HiBit-BRM fusion protein) was “C (‘C’ = Maximum degradation <50%)” and the DC50 [1] was > 10 µM. For the same compound, the Dmax [1] was < 50%.

With `CS(=O)(=O)n1ccc(C(=O)NCC(=O)Nc2nc(-c3cccc(-c4ccnc(C5(C(=O)N6CC(COc7cccc8c7C(=O)N(C7CCC(=O)NC7=O)C8=O)C6)CC5)c4)c3)cs2)c1` (centres unmarked) [Compound 109, N-[4-[3-(2-[1-[3-([[2-(2,6-dioxopiperidin-3-yl)-1,3-dioxoisoindol-4-yl]oxy]methyl)azetidine-1-carbonyl]cyclopropyl]pyridin-4-yl)phenyl]-1,3-thiazol-2-yl]-2-[(1-methanesulfonylpyrrol-3-yl)formamido]acetamide] the DC50 (HiBit-BRM fusion protein) was > 10 µM, the “BRM HiBit Degradation Maximum measured” value (HiBit-BRM fusion protein) was “C (‘C’ = Maximum degradation <50%)” and the DC50 [1] was > 10 µM. For the same compound, the Dmax [1] was < 50%.

For `CS(=O)(=O)n1ccc(C(=O)N[C@@H](COCc2ccc(C(=O)N3CC(COc4cccc5c4C(=O)N(C4CCC(=O)NC4=O)C5=O)C3)cc2)C(=O)Nc2nc(-c3ccccc3)cs2)c1` (stereo partly drawn) [Compound 197, (2S)-3-([4-[3-([[2-(2,6-dioxopiperidin-3-yl)-1,3-dioxoisoindol-4-yl]oxy]methyl)azetidine-1-carbonyl]phenyl]methoxy)-2-[(1-methanesulfonylpyrrol-3-yl)formamido]-N-(4-phenyl-1,3-thiazol-2-yl)propanamide], the DC50 (HiBit-BRM fusion protein) was > 10 µM, the “BRM HiBit Degradation Maximum measured” value (HiBit-BRM fusion protein) was “C (‘C’ = Maximum degradation <50%)” and the DC50 [1] was > 10 µM. The Dmax [1] was < 50%.

With `CS(=O)(=O)n1ccc(C(=O)N[C@@H](COCCCC(=O)NCCCCS(=O)(=O)CCCNc2cccc3c2C(=O)N(C2CCC(=O)NC2=O)C3=O)C(=O)Nc2nc(-c3ccccc3)cs2)c1` (some centres unmarked) [Compound 172] the DC50 (HiBit-BRM fusion protein) was > 10 µM, the “BRM HiBit Degradation Maximum measured” value (HiBit-BRM fusion protein) was “C (‘C’ = Maximum degradation <50%)” and the DC50 [1] was > 10 µM. For the same compound, the Dmax [1] was < 50%.

With `CS(=O)(=O)n1ccc(C(=O)N[C@@H](COCc2ccc(C(=O)N3CCN(CCOc4ccc5c(c4)C(=O)N(C4CCC(=O)NC4=O)C5=O)CC3)cc2)C(=O)Nc2nc(-c3ccccc3)cs2)c1` (stereo partly drawn) [Compound 191, (2S)-3-([4-[4-(2-[[2-(2,6-dioxopiperidin-3-yl)-1,3-dioxoisoindol-5-yl]oxy]ethyl)piperazine-1-carbonyl]phenyl]methoxy)-2-[(1-methanesulfonylpyrrol-3-yl)formamido]-N-(4-phenyl-1,3-thiazol-2-yl)propanamide; formic acid] the DC50 (HiBit-BRM fusion protein) was > 10 µM, the “BRM HiBit Degradation Maximum measured” value (HiBit-BRM fusion protein) was “C (‘C’ = Maximum degradation <50%)” and the DC50 [1] was > 10 µM. For the same compound, the Dmax [1] was < 50%.
